# Measured values published in US7244738B2, “Arylamine-substituted quinazolinone compounds useful as alpha 1A/B adrenergic receptor antagonists” (Roche Palo Alto LLC, priority 2003, dated 2007).
row,SMILES,melting point [°C]
1,"CCc1c(OC)c(OC)cc2[nH]c(N(C)Cc3cccc(/N=C(\C)N(C)C)c3)nc(=O)c12 [Example 199, N′-(3-{[(5-Ethyl-6,7-dimethoxy-4-oxo-1,4-dihydro-quinazolin-2-yl)-methyl-amino]-methyl}-phenyl)-N,N-dimethyl-acetamidine]",224.6 to 225.5
2,"COc1cc2[nH]c(N(C)Cc3cccc(/N=C(\C4CCC4)N(C)C)c3)nc(=O)c2c(OC)c1OC [Example 203, N,N-Dimethyl-N′-(3-{[methyl-(5,6,7-trimethoxy-4-oxo-11,4-dihydro-quinazolin-2-yl)-amino]-methyl}-phenyl)-cyclobutanecarboxamidine]",164.2 to 165.7
3,"COc1cc2[nH]c(N(C)Cc3cccc(/N=C4/CCCN4C)c3)nc(=O)c2c(OC)c1OC [Example 205, 5,6,7-Trimethoxy-2-(methyl-{3-[1-methyl-pyrrolidin-(2Z)-ylideneamino]-benzyl}-amino)-1H-quinazolin-4-one]",130 to 133
4,"COc1cc2[nH]c(N(C)Cc3cc(N(C)C4=NCCC4)ccc3F)nc(=O)c2c(O)c1OC [Example 211, 2-({-[(4,5-Dihydro-3H-pyrrol-2-yl)-methyl-amino]-2-fluoro-benzyl}-methylamino)-5-hydroxy-6,7-dimethoxy-1H-quinazolin-4-one]",264.9 to 267
5,"COc1cc2[nH]c(N(C)Cc3cccc(Nc4ncccn4)c3)nc(=O)c2c(OC)c1OC [Example 213, 5,6,7-Trimethoxy-2-{methyl-[3-(pyrimidin-2-ylamino)-benzyl]-amino}-1H-quinaozlin-4-one]",190.3 to 191.1
6,"COc1cc2[nH]c(N(C)Cc3cccc(Nc4ccnc(Cl)n4)c3)nc(=O)c2c(OC)c1OC [Example 214, 2-{[3-(2-Chloro-pyrimidin-4-ylamino)-benzyl]-methyl-amino}-5,6,7-trimethoxy-1H-quinazolin-4-one]",205.9 to 210.1
7,"COc1cc2[nH]c(N(C)Cc3cccc(Nc4nccc(Cl)n4)c3)nc(=O)c2c(OC)c1OC [Example 215, 2-{[3-(4-Chloro-pyrimidin-2-ylamino)-benzyl]-methyl-amino}-5,6,7-trimethoxy-1H-quinazolin-4-one]",128.9 to 133.4
8,"COc1cc2[nH]c(N(C)Cc3cccc(Nc4nc(Cl)ncc4C)c3)nc(=O)c2c(OC)c1OC [Example 217, 2-{[3-(2-Chloro-5-methyl-pyrimidin-4-ylamino)-benzyl]-methyl-amino}-5,6,7-trimethoxy-1H-quinazolin-4-one]",225.9 to 227
9,"COc1cc2[nH]c(N(C)Cc3cccc(Nc4cc(C)nc(Cl)n4)c3)nc(=O)c2c(OC)c1OC [Example 218, 2-{[3-(2-Chloro-6-methyl-pyrimidin-4-ylamino)-benzyl]-methyl-amino}-5,6,7-trimethoxy-1H-quinazolin-4-one]",185.5 to 187.1
10,"COc1cc2[nH]c(N(C)Cc3cccc(Nc4nc(C)cc(Cl)n4)c3)nc(=O)c2c(OC)c1OC [Example 219, 2-{[3-(4-Chloro-6-methyl-pyrimidin-2-ylamino)-benzyl]-methyl-amino}-5,6,7-trimethoxy-1H-quinazolin-4-one]",191.3 to 192.8
11,"COc1cc2[nH]c(N(C)Cc3cccc(NCc4ncc[nH]4)c3)nc(=O)c2c(OC)c1OC [Example 220, 2-({3-[(1H-Imidazol-2-ylmethyl)-amino]-benzyl}-methylamino)-5,6,7-trimethoxy-1H-quinazolin-4-one]",125 to 131
12,"COc1cc2[nH]c(N(C)Cc3cccc(/N=C(\C)N(C)C)c3)nc(=O)c2c(F)c1OC [Example 221, N′-(3-{[(5-Fluoro-6,7-dimethoxy-4-oxo-1,4-dihydro-quinazolin-2-yl)-methyl-amino]-methyl}-phenyl)-N,N-dimethyl-acetamidine]",199.9 to 201.9
13,"COc1cc2[nH]c(N(C)Cc3cccc(-n4cnc(C)c4)c3)nc(=O)c2c(C)c1OC [Example 230, 6,7-Dimethoxyt-5-methyl-2-{methyl-[3-(4-methyl-imidazol-1-yl)-benzyl]-amino}-1H-quinazolin-4-one]",245 to 249.5
14,"COc1cc2[nH]c(N(C)Cc3cccc(-n4cccn4)c3)nc(=O)c2c(C)c1OC [Example 232, 6,7-Dimethoxy-5-methyl-2-[methyl-(3-pyrazol-1-yl-benzyl)-amino]-1H-quinazolin-4-one]",220.8 to 224.1
15,"COc1cc2[nH]c(N(C)Cc3cccc(-n4ccc(C)n4)c3)nc(=O)c2c(C)c1OC [Example 233, 6,7-Dimethoxy-5-methyl-2-{methyl-[3-(3-methyl-pyrazol-1-yl)-benzyl]-amino}-1H-quinazolin-4-one]",220 to 223.5
16,"COc1cc2[nH]c(N(C)Cc3ccc(C4=NCCN4C)cc3)nc(=O)c2c(C)c1OC [Example 237, 6,7-Dimethoxy-5-methyl-2-{methyl[4-(1-methyl-,5-dihydro-1H-imidazol-2-yl)-benzyl]-amino}-1H-quinazolin-4-oine]",179 to 181
17,"COc1cc2[nH]c(N(C)Cc3cccc(C4=NCCN4CCO)c3)nc(=O)c2c(C)c1OC [Example 244, 2-({3-[1-(2-Hydroxy-ethyl)-4,5-dihydro-1H-imidazol-2-yl]-benzyl}-methyl-amino)-6,7-dimethoxy-5-methyl-1H-quinazolin-4-one]",253 to 254.9
18,"COCCN1CCN=C1c1cccc(CN(C)c2nc(=O)c3c(C)c(OC)c(OC)cc3[nH]2)c1 [Example 246, 6,7-Dimethoxy-2-*{3-[1-(2-methoxy-ethyl)-4,5-dihydro-1H-imidazol-2-yl]-benzyl}-methyla-mino)-5-methyl-1H-quinazolin-4-one]",161 to 164.4
19,"COc1cc2[nH]c(N(C)Cc3cccc(-c4ncc[nH]4)c3)nc(=O)c2c(C)c1OC [Example 248, 2-{[3-(1H-Imidazol-2-yl)-benzyl]-methyl-amino}-6,7-dimethoxy-5-methyl-1H-quinazolin-4-one]",255.5 to 258.9

# Next, values leading:
row,melting point [°C],SMILES
1,179 to 182.1,"COc1cc2[nH]c(N(C)Cc3cccc(-c4nccn4C)c3)nc(=O)c2c(C)c1OC [Example 249, 6,7-Dimethoxy-5-methyl-2-{methyl-[3-(1-methyl-`1H-imidazol-2-yl)-benzyl]-amino}-1H-quinazolin-4-one]"
2,226 to 228.5,"COc1cc2[nH]c(N(C)Cc3cccc(N4CCCS4(=O)=O)c3)nc(=O)c2c(C)c1OC [Example 252, 2-{[3-(1,1-Dioxo-1λ6-isothiazolidin-2-yl)-benzyl]-methyl-amino}-6,7-dimethoxy-5-methyl-1H-quinazolin-4-one]"
3,181.1 to 183.5,"COc1cc2[nH]c(N(C)Cc3cccc(N4CCCS4(=O)=O)c3)nc(=O)c2c(OC)c1OC [Example 253, {[3-(1,1-Dioxo-1λ6-isothiazolidin-2-yl)-benzyl]-methyl-amino}-5,6,7-trimethoxy-1H-quinazolin-4-one]"
4,254.8 to 257.1,"COc1cc2[nH]c(N(C)Cc3cccc(N4CCOC4=O)c3)nc(=O)c2c(C)c1OC [Example 254, 6,7-Dimethoxy-5-methyl-2-{methyl-[3-(2-oxo-oxazolidin-3-yl)-benzyl]-amino}-1H-quinazolin-4-one]"
5,226 to 229.5,"COc1cc2[nH]c(N(C)Cc3cccc(N4CCOC4=O)c3)nc(=O)c2c(OC)c1OC [Example 255, 5,6,7-ZTrimethoxy-2-{methyl[3-(2-oxo-oxazolidin-3-yl)-benzyl]-amino}-1H-quinazolin-4-one]"
6,210.8 to 211.6,"COc1cc2[nH]c(N(C)Cc3cccc(N4CCC(C)C4=O)c3)nc(=O)c2c(C)c1OC (stereo not shown) [Example 256, 6,7-Dimethoxy-5-methyl-2-{methyl-[3-(3-methyl-2-oxo-pyrrolidin-1-yl)-benzyl]-amino}-1H-quinazolin-4-one]"
7,200.1 to 202.1,"CCC1CCN(c2cccc(CN(C)c3nc(=O)c4c(C)c(OC)c(OC)cc4[nH]3)c2)C1=O (stereo not shown) [Example 257, 2-{[3-(3-Ethyl-2-oxo-pyrrolidin-1-yl)-benzyl]-methyl-amino}-6,7-dimethoxy-5-methyl-1H-quinazolin-4-one]"
8,198.6 to 199.8,COc1cc2[nH]c(N(C)Cc3cccc(N4C(=O)CCC4=O)c3)nc(=O)c2c(C)c1OC [Example 259]
9,125.5 to 128.5,"COc1cc2[nH]c(N(C)Cc3cccc(N4C(=O)CCC4=O)c3)nc(=O)c2c(OC)c1OC [Example 260, 1-(3-{[Methyl-(5,6,7-trimethoxy-4-oxo-1,4-dihydro-quinazolin-2-yl)-amino]-methyl}-phenyl)-pyrrolidine-2,5-dione]"
10,130 to 133,"COc1cc2[nH]c(N(C)Cc3cccc(N4CCNC4=O)c3)nc(=O)c2c(OC)c1OC [Example 261, 5,6,7-Trimethoxy-2-{methyl[3-(2-oxo-imidazolidin-1-yl)-benzyl]-amino}-1H-quinazolin-4-one]"
11,230 to 230.5,"COc1cc2[nH]c(N(C)Cc3cccc(N4CCN(C)C4=O)c3)nc(=O)c2c(C)c1OC [Example 262, 6,7-Dimethoxy-5-methyl-2-{methyl-[3-(3-methyl-2-oxo-imidazolidin-1-yl)-benzyl]-amino}-1H-quinazolin-4-one]"
12,205.4 to 207.8,"COc1cc2[nH]c(N(C)Cc3cccc(N4CCN(C)C4=O)c3)nc(=O)c2c(OC)c1OC [Example 263, 5,6,7-Trimethoxy-2-{methyl-[3-(3-methyl-2-oxo-imidazolidin-1-yl)-benzyl]-amino}-1H-quinaozlin-4-one]"
13,201.4 to 207.4,"CCN1CCN(c2cccc(CN(C)c3nc(=O)c4c(C)c(OC)c(OC)cc4[nH]3)c2)C1=O [Example 264, 2-{[3-(3-Ethyl-2-oxo-imidazolidin-1-yl)-benzyl]-methyl-amino}-6,7-dimethoxy-5-methyl-1H-quinaozlin-4-one]"
14,200.3 to 200.9,"CCN1CCN(c2cccc(CN(C)c3nc(=O)c4c(OC)c(OC)c(OC)cc4[nH]3)c2)C1=O [Example 265, 2-{[3-(3-Ethyl-2-oxo-imidazolidin-1-yl)-benzyl]-methyl-amino}-5,6,7-trimethoxy-1H-quinaozlin-4-one]"
15,199.5 to 202.1,"COCCN1CCN(c2cccc(CN(C)c3nc(=O)c4c(OC)c(OC)c(OC)cc4[nH]3)c2)C1=O [Example 266, 5,6,7-Trimethoxy-2-({3-[3-(2-methoxy-ethyl)-2-oxo-imidazllidin-1-yl]-benzyl}-methyl-amino)-1H-quinazolin-4-one]"
